Measurements taken from patent publication US7709645B2, “Pyrrolo-pyridine kinase modulators” (SGX Pharmaceuticals, Inc., priority 2004, dated 2010).

Target: T1, Abl T315I kinase domain (unphosphorylated) (Mus musculus, UniProt P00520, T315I)
T1 construct: purified and unphosphorylated T315I Abl kinase domain; made in house; host or cells: E. coli BL21(DE3) strains
T1 sequence (P00520 242-493 T315I limits assumed): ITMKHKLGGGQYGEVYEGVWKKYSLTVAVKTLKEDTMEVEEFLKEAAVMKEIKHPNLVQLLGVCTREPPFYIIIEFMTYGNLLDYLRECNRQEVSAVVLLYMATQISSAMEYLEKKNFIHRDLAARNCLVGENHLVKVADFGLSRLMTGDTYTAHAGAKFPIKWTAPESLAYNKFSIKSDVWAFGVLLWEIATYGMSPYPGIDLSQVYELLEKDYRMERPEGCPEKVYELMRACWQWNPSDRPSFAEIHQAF
Experiment: Abl_T315I Bioassay (c-Abl PK/LDH coupled enzyme assay)
Format: biochemical
Conditions: 10 μM ATP
Source text: Although the first of these examples uses the kinase domain of a mutant form of Abl T315I (“Abl T315I KD”), the kinase assays may use various forms of mutant and wild type enzymes, including, for example, the entire protein, the kinase domain, or a portion thereof (e.g. Abl Y393F). The kinases used in the assays may also be of varying phosphorylation states. In the c-Abl example, a mutant kinase at a zero phosphorylation state was used.
In the c-Abl Pyruvate Kinase (PK)/Lactate Dehydrogenase (LDH) Coupled Assay the protein kinase dependant phosphorylation of a substrate peptide was coupled to the oxidation of NADH. The oxidation of NADH to NAD+ was detected by monitoring a decrease in absorbance at 340 nm.
Materials: Abl substrate peptide=EAIYAAPFAKKK (SEQ ID NO:1)-OH (Biopeptide, San Diego, Calif.); βNADH (Sigma Cat#N-8129, FW=709.4); 2M MgCl2; 1M HEPES buffer, pH 7.5; Phosphoenolpyruvate (PEP) (Sigma Cat#P-7002, FW=234); Lactate dehydrogenase (LDH) (Worthington Biochemical Cat#2756); Pyruvate Kinase (PK) (Sigma Cat#P-9136); ATP (Sigma Cat#A-3377, FW=551); Greiner 384-well UV star plate; and purified and unphosphorylated T315I Abl kinase domain.
Stock Solutions: 10 mM NADH (7.09 mg/ml in miliQH2O) made fresh daily; 10 mM Abl substrate peptide (13.4 mg/ml in miliQH2O) stored at −20° C.; 100 mM HEPES buffer, pH 7.5 (5 ml 1M stock+45 ml miliQH2O); 100 mM MgCl2 (5 ml 2M MgCl2+95 ml dH2O); 100 mM PEP (23.4 mg/ml in dH2O) stored at −20° C.; 10 mM ATP (5.51 mg/ml in dH2O) stored at −20° C. (diluted 50 μl into total of 10 ml miliQH2O daily=50 μM ATP working stock); 1000 U/ml PK (U/mg varies with lot) flash-frozen under liquid N2 and stored at −80° C.; and 1000 U/ml LDH (U/mg varies with lot) flash-frozen under liquid N2 and stored at −80° C.
Standard Assay Setup for 384-well format (50 μl reaction): 300 μM NADH; 10 mM MgCl2; 2 mM PEP; 45 U/ml PK; 60 U/ml LDH; 200 μM Abl substrate peptide; 2.5 μl test compound (in DMSO); 2 μg/ml Abl kinase domain; 10 μM ATP; 100 mM HEPES buffer. Positive controls contained DMSO with no test compound. Negative controls contained 5 μl of 0.5M EDTA (50 mM in the assay). The dephosphorylated form of the c-Abl T315I mutant was used in the biochemical screening assays. The kinase reaction was initiated at time t=0 by the addition of ATP.
Activity was measured by following the time-dependent loss of NADH by absorbance spectroscopy at 340 nm. The linear portion of the resulting progress curve was then analyzed by linear regression to get the activity in absorbance units/time, reported as the slope of that best fit line (moles/unit time can be calculated from using molar extinction coefficient for NADH at 340 nm, 6250M^−1 cm^−1).
Data was evaluated using the equation: Z′=1−[3*(σ++σ−)/|μ+−μ−|](Zhang, et al., 1999 J Biomol Screening 4(2) 67-73), where μ denotes the mean and σ the standard deviation. The subscript designates positive or negative controls. The Z′ score for a robust screening assay should be ≧0.50. The typical threshold=μ+−3*σ+. Any value that falls below the threshold was designated a “hit”.
Dose response was analyzed using the equation: y=min+{(max−min)/(1+10^[compound]−logIC50)}, where y is the observed initial slope, max=the slope in the absence of inhibitor, min=the slope at infinite inhibitor, and the IC50 is the [compound] that corresponds to ½ the total observed amplitude (Amplitude=max−min).
To measure modulation, activation, or inhibition of Abl KD, a test compound was added to the assay at a range of concentrations. Inhibitors may inhibit Abl KD activity at an IC50 in the micromolar range, the nanomolar range, or, for example, in the subnanomolar range.
An open-reading frame for c-Abl was amplified from a Mus musculus (mouse) cDNA library prepared from freshly harvested mouse liver using a commercially available kit (Invitrogen) by PCR using the following primers: […]
The c-Abl T315I KD (kinase domain) was purified as follows. […]

Structure (SMILES) | IC50 [µM]
c1cc2cc(-c3c[nH]c4ncc(-c5ccc6[nH]cnc6c5)cc34)ccc2[nH]1 [AE22] | < 0.05
COc1ccccc1-c1c[nH]c2ncc(-c3ccc[nH]3)cc12 [AE67] | < 0.05
Oc1cccc(-c2cnc3[nH]cc(-c4ccc(O)c(F)c4)c3c2)c1 [AE48] | < 0.05
CNC(=O)c1cncc(-c2cnc3[nH]cc(-c4ccccc4OC)c3c2)c1 [AE1] | < 0.05
COc1cc(-c2cnc3[nH]cc(-c4ccccc4OC)c3c2)ccc1OCCN1CCCC1 [AE65] | < 0.05
CNC(=O)c1cc(-c2cnc3[nH]cc(-c4ccccc4OC)c3c2)cs1 [AE2] | < 0.05
COc1ccccc1-c1c[nH]c2ncc(-c3ccc4[nH]cc(CC(=O)O)c4c3)cc12 [AE10] | < 0.05
COc1ccccc1-c1c[nH]c2ncc(-c3cc[nH]c(=O)c3)cc12 [AE9] | < 0.05
N#Cc1cc(-c2cnc3[nH]cc(-c4ccc5[nH]ccc5c4)c3c2)ccc1O [AE20] | < 0.05
COc1ccccc1-c1c[nH]c2ncc(-c3ccc(O)c(CN4CCCN(C)CC4)c3)cc12 [AE41] | < 0.05
COc1ccccc1-c1c[nH]c2ncc(-c3ccc(S(N)(=O)=O)s3)cc12 [AE11] | < 0.05
COc1ccccc1-c1c[nH]c2ncc(-c3ccc(S(N)(=O)=O)cc3)cc12 [AE21] | < 0.05
COc1ccccc1-c1c[nH]c2ncc(-c3csc(C(=O)N(C)C)c3)cc12 [AE3] | < 0.05
COCCOc1ccc(-c2cnc3[nH]cc(-c4ccccc4OC)c3c2)cc1OCCOC [AE68] | < 0.05
COc1cc(-c2cnc3[nH]cc(-c4ccc(O)cc4)c3c2)ccc1O [AE58] | < 0.05
Nc1nc(-c2c[nH]c3ncc(-c4ccc5[nH]ccc5c4)cc23)cs1 [AE55] | < 0.05
O=C(c1cncc(-c2cnc3[nH]cc(-c4ccc5cc[nH]c5c4)c3c2)c1)N1CCOCC1 [AE14] | < 0.05
COc1ccccc1-c1c[nH]c2ncc(-c3ccc(CN(C)C)cc3)cc12 [AE8] | < 0.05
COc1ccccc1-c1c[nH]c2ncc(-c3cccc(S(C)(=O)=O)c3)cc12 [AE13] | < 0.05
COc1cc(-c2cnc3[nH]cc(-c4ccccc4OC)c3c2)ccc1O [AE64] | < 0.05
COc1ccccc1-c1c[nH]c2ncc(-c3cccc(C(=N)N4CCCCC4)c3)cc12 [AE42] | < 0.05
Oc1cccc(-c2cnc3[nH]cc(-c4ccn[nH]4)c3c2)c1 [AE49] | < 0.05
